Read-outs that look alike come from different tables or passages of the source.
Key:
V600E-B-RAF = V600E-B-RAF (Homo sapiens (Human), UniProt P15056, V600E); test: Protein kinase enzymatic activity (Reaction Biology kinase hotspot, 33P-ATP); assay type: biochemical; conditions: read-out: Inhibitory effect against kinase activity, V600E-B-RAF (IC50)
Experimental: (§1) Reaction biology kinase hotspot service (http://www.reactionbiology.com) was used to measure IC50. In a final reaction volume of 25 μL, kinase (5 mU to 10 mU) was incubated with 25 mM Tris (pH 7.5), 0.02 mM EGTA, 0.66 mg/ml of myelin basic protein, 10 mM magnesium acetate, and [^33P-ATP] (specific activity of about 500 CPM/pmol, concentration as required). The reaction was initiated by addition of Mg-ATP mix. After incubation for 40 min at room temperature, the reaction was stopped by addition of 5 μl of a 3% phosphoric acid solution. 10 μL of the reaction was then spotted onto a P30 filtermat and washed three times for 5 minutes in 75 mM phosphoric acid and once in methanol prior to drying and scintillation counting.

C-RAF = C-RAF (Homo sapiens (Human), UniProt P04049, Y340D/Y341D); test: as above; assay type: biochemical; conditions: read-out: Inhibitory effect against kinase activity, C-RAF (IC50)
Chain of C-RAF (P04049 306-648 Y340D/Y341D limits assumed): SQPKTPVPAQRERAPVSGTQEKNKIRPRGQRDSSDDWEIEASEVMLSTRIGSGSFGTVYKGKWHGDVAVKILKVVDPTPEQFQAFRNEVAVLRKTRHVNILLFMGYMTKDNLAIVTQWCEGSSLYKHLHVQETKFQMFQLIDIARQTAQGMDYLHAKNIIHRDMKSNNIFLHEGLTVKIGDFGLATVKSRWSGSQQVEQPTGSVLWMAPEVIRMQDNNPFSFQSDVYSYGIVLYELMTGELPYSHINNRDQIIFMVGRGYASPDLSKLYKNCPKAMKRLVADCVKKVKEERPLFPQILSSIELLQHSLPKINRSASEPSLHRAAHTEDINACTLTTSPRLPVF
Experimental: as §1

B-RAF = B-RAF (Homo sapiens (Human), UniProt P15056); test: as above; assay type: biochemical; conditions: read-out: Inhibitory effect against kinase activity, B-RAF (IC50)
Chain of B-RAF (P15056 whole entry): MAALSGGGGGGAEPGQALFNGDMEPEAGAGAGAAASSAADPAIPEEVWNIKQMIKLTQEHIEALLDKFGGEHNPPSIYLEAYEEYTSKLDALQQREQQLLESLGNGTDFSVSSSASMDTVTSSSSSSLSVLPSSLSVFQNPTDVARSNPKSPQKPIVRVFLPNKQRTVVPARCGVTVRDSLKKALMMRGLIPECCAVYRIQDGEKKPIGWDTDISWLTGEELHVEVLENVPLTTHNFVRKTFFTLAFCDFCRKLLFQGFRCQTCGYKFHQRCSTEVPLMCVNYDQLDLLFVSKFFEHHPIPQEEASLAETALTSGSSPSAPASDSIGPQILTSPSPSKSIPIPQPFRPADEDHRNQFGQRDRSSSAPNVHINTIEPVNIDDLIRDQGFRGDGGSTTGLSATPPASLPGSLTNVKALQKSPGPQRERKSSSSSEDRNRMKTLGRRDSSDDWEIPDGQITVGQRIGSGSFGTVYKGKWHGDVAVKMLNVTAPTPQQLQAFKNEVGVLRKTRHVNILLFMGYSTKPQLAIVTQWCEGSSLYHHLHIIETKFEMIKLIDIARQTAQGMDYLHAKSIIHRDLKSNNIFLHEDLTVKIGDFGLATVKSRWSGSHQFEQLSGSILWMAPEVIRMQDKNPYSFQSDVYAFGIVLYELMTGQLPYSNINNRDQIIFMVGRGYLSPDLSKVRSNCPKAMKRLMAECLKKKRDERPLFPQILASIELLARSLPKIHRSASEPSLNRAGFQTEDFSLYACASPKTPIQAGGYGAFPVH
Experimental: as §1

A375 = test: NCI cancer cell line panel screening (SRB), melanoma cell line A375; assay type: cell-based; conditions: Homo sapiens, A-375, read-out: IC50 against melanoma cell line in vitro
Experimental: (§2) According to the standard protocol (http://dtp.nci.nih.gov/dtpstandard/dwindex/index.isp) of the US National Cancer Institute (NCI) (www.dtp.nci.nih.gov), screening of a cancer cell line panel was performed. Briefly, human cell lines were allowed to grow in an RPMI 1640 medium containing 5% FBS and 2 mM L-glutamine. For a general screening experiment, cells were inoculated in 96-well microtiter plates in 100 μl at a plating density ranging from 5000 cells/well to 40,000 cells/well depending on the doubling time of individual cell lines. After cell inoculation, the microtiter plates were incubated at 37° C., 5% CO2, 95% air, and 100% relative humidity for 24 hours prior to addition of test compounds. 24 hours later, two plates of each cell line were fixed in situ with trichloroacetic acid (TCA) to measure the cell population for each cell line at the time of test compound addition (Tz). Test compounds were solubilized in dimethyl sulfoxide at 400-fold the intended final maximum test concentration, and stored frozen prior to use. At the time of compound addition, an aliquot of frozen concentrate was thawed and diluted to twice the intended final maximum test concentration with a complete medium containing 50 μg/ml of gentamicin. Additional four concentration of 10-fold or ½ log serial dilutions were made to provide a total of five compound concentrations plus control. Aliquots of 100 μl of these different compound dilutions were added to appropriate microtiter wells already containing 100 μl of medium, resulting in the required final compound concentrations.
(§3) Following compound addition, the plates were incubated for additional 48 hours at 37° C., 5% CO2, 95% air, and 100% relative humidity. For adherent cells, the assay was terminated by the addition of cold TCA. Cells were fixed in situ by the gentle addition of 50 μl of cold 50% (w/v) TCA (final concentration, 10% TAC) and incubated at 4° C. for 60 minutes. The supernatant was discarded, and the plates were washed five times with tap water and air-dried. A sulforhodamine B (SRB) solution (100 μl) at 0.4% (w/v) in 1% acetic acid was added to each well, and plates were incubated at room temperature for 10 minutes. After staining, unbound dye was removed by washing five times with 1% acetic acid and the plates were air-dried. Bound stain was subsequently solubilized with 10 mM Trizma base, and the absorbance was read on an automated plate reader at a wavelength of 515 nm. For suspension cells, the methodology was the same except that the assay was terminated by fixing settled cells at the bottom of the wells by gently adding 50 μl of 80% TCA (final concentration, 16% TCA). Using the seven absorbance measurements [time zero (Tz), control growth (C), and test growth rate in the presence of compound at the five concentration levels (Ti)], the growth percentage was calculated at each of the compound concentration levels. Growth inhibition percentage was calculated as follows: [(Ti−Tz)/(C−Tz)]×100 for concentrations for which Ti>/=Tz [(Ti−Tz)/Tz]×100 for concentrations for which Ti<Tz.

LOX IMVI = test: NCI cancer cell line panel screening (SRB), melanoma cell line LOX IMVI; assay type: cell-based, human; conditions: read-out: IC50 against melanoma cell line in vitro
Experimental: as §2, with “Briefly, human cell lines were allowed to grow in an RPMI 1640 medium containing 5% FBS and 2 mM L-glutamine.” left out
as §3, with “Bound stain was subsequently solubilized with 10 mM Trizma base, and the absorbance was read on an automated plate reader at a wavelength of 515 nm.” left out

M14 = test: NCI cancer cell line panel screening (SRB), melanoma cell line M14; assay type: cell-based; conditions: Homo sapiens, read-out: IC50 against melanoma cell line in vitro
Experimental: as §2, §3

UACC-62 = test: NCI cancer cell line panel screening (SRB), melanoma cell line UACC-62; assay type: cell-based; conditions: Homo sapiens, read-out: IC50 against melanoma cell line in vitro
Experimental: as §2, §3

SK-MEL-28 = test: NCI cancer cell line panel screening (SRB), melanoma cell line SK-MEL-28; assay type: cell-based, human; conditions: read-out: IC50 against melanoma cell line in vitro
Experimental: as §2, with “Briefly, human cell lines were allowed to grow in an RPMI 1640 medium containing 5% FBS and 2 mM L-glutamine.” left out
as §3, with “Bound stain was subsequently solubilized with 10 mM Trizma base, and the absorbance was read on an automated plate reader at a wavelength of 515 nm.” left out

MDA-MB-435 = test: NCI cancer cell line panel screening (SRB), melanoma cell line MDA-MB-435; assay type: cell-based; conditions: Homo sapiens, read-out: IC50 against melanoma cell line in vitro
Experimental: as §2, §3

SK-MEL-5 = test: NCI cancer cell line panel screening (SRB), melanoma cell line SK-MEL-5; assay type: cell-based, human; conditions: read-out: IC50 against melanoma cell line in vitro
Experimental: as §2, with “Briefly, human cell lines were allowed to grow in an RPMI 1640 medium containing 5% FBS and 2 mM L-glutamine.” left out
as §3, with “Bound stain was subsequently solubilized with 10 mM Trizma base, and the absorbance was read on an automated plate reader at a wavelength of 515 nm.” left out

SK-MEL-2 = test: NCI cancer cell line panel screening (SRB), melanoma cell line SK-MEL-2; assay type: cell-based, human; conditions: read-out: IC50 against melanoma cell line in vitro
Experimental: as §2, with “Briefly, human cell lines were allowed to grow in an RPMI 1640 medium containing 5% FBS and 2 mM L-glutamine.” left out
as §3, with “Bound stain was subsequently solubilized with 10 mM Trizma base, and the absorbance was read on an automated plate reader at a wavelength of 515 nm.” left out

Chain of V600E-B-RAF (P15056 whole entry V600E): as the sequence (P15056 whole entry) above, with V600E counted along it

Compound	IC50 (V600E-B-RAF) [nM]	IC50 (C-RAF) [nM]	IC50 (B-RAF) [nM]	IC50 (A375) [nM]	IC50 (LOX IMVI; Homo sapiens) [nM]	IC50 (M14) [nM]	IC50 (UACC-62) [nM]	IC50 (SK-MEL-28; Homo sapiens) [nM]	IC50 (MDA-MB-435) [nM]	IC50 (SK-MEL-5; Homo sapiens) [nM]	IC50 (SK-MEL-2; Homo sapiens) [nM]	IC50 (LOX IMVI) [nM]	IC50 (SK-MEL-28) [nM]	IC50 (SK-MEL-5) [nM]	IC50 (SK-MEL-2) [nM]
CN1CCN(CCNc2nccc(-c3c(-c4cccc(O)c4)nc4occn34)n2)S1(=O)=O [1II, 2-(2-((4-(6-(3-Hydroxylphenyl)imidazo[2,1-b]oxazol-5-yl)pyrimidin-2-yl)amino)ethyl)-5-methyl-1,2,5-thiadiazolidine 1,1-dioxide]	1.85	2.95	3.23	60	–	–	–	–	–	–	–	–	–	–	–
COc1ccc(S(=O)(=O)NCCNc2nccc(-c3c(-c4ccccc4)nc4sccn34)n2)cc1 [2III, 4-Methoxy-N-(2-((4-(6-phenylimidazo[2,1-b]thiazol-5-yl)pyrimidin-2-yl)amino)ethyl)benzenesulfonamide]	77	–	459	–	3940	2770	1170	5790	1220	1680	4980	–	–	–	–
CC1(C)CN(CCNc2nccc(-c3c(-c4cccc(O)c4)nc4occn34)n2)S(=O)(=O)N1 [5II, 2-(2-((4-(6-(3-Hydroxylphenyl)imidazo[2,1-b]oxazol-5-yl)pyrimidin-2-yl)amino)ethyl)-4,4-dimethyl-1,2,5-thiadiazolidine 1,1-dioxide]	–	–	–	870	2300	320	90	220	740	340	1600	–	–	–	–
CN1CCCN(CCNc2nccc(-c3c(-c4cccc(O)c4)nc4occn34)n2)S1(=O)=O [6II, 2-(2-((4-(6-(3-Hydroxylphenyl)imidazo[2,1-b]oxazol-5-yl)pyrimidin-2-yl)amino)ethyl)-6-methyl-1,2,6-thiadiazinane 1,1-dioxide]	–	–	–	470	4360	160	58	240	490	240	2280	–	–	–	–
O=S1(=O)NCCCN1CCNc1nccc(-c2c(-c3cccc(O)c3)nc3occn23)n1 [8II, 2-(2-((4-(6-(3-Hydroxylphenyl)imidazo[2,1-b]oxazol-5-yl)pyrimidin-2-yl)amino)ethyl)-1,2,6-thiadiazinane 1,1-dioxide]	–	–	–	58	2150	300	59	170	380	170	380	–	–	–	–
COc1cccc(-c2nc3sccn3c2-c2ccnc(NCCNS(=O)(=O)c3ccc(C(F)(F)F)cc3)n2)c1 [8III, N-(2-((4-(6-(3-methoxyphenyl)imidazo[2,1-b]thiazol-5-yl)pyrimidin-2-yl)amino)ethyl)-4-(trifluoromethyl)benzenesulfonamide]	98	–	687	–	–	–	480	–	–	–	–	3260	3680	1240	3040
O=S(=O)(NCCNc1nccc(-c2c(-c3cccc(O)c3)nc3sccn23)n1)c1ccc(F)cc1 [25III, 4-Fluoro-N-(2-((4-(6-(3-hydroxylphenyl)imidazo[2,1-b]thiazol-5-yl)pyrimidin-2-yl)amino)ethyl)benzenesulfonamide]	1	–	5.7	480	–	560	260	660	930	–	–	4110	–	1610	4490
O=S(=O)(NCCCNc1nccc(-c2c(-c3cccc(O)c3)nc3sccn23)n1)c1ccc(F)cc1 [31III, 4-fluoro-N-(3-((4-(6-(3-hydroxylphenyl)imidazo[2,1-b]thiazol-5-yl)pyrimidin-2-yl)amino)propyl)benzenesulfonamide]	0.98	7.83	4.19	300	560	60	20	50	240	1200	1100	–	–	–	–
